Reference: publication PMC6021035, “Insights into biological activity of ureidoamides with primaquine and amino acid moieties” (Journal of Enzyme Inhibition and Medicinal Chemistry, 2018)
Converted amounts (≈) assume the structure as drawn.

How the values were obtained:
[1] = system: Candida albicans ATCC 90028; experiment: Minimum biofilm eradication assay; assay type: cell-based; details: ATCC90028, 48 h, read-out: MBEC
Description: (§1) We tested the susceptibility of different bacterial and yeast strains to compounds 5a–f by determining the minimum biofilm eradication concentration (MBEC). The test was performed in a sterile 96-well flat-bottom plastic tissue culture plate (TPP, Switzerland). Each well was filled with 100 µl of bacterial (10^7 CFUs/ml) or yeast (5 × 10^6 CFUs/ml) suspension. When the possibility of inhibition of yeast biofilm formation was tested, the wells were pre-treated with FBS (250 µl per well). Negative controls contained broth only. Positive controls were performed using standard antibacterial and antifungal drugs gentamycin and amphotericin B, respectively. The plates were covered and incubated aerobically for 24 h (bacteria) or 48 h (yeast) at 37 °C. Following the incubation period, each well was aspirated and washed three times with 250 µl of PBS and vigorously shaken in order to remove all non-adherent bacteria/yeast. The remaining attached cells were fixed with methanol (15 min) and the plates were left to dry overnight. The formed biofilm was stained with crystal violet (1%, 5 min). Excess stain was rinsed by placing the plate under running tap water and the plates were left to dry for 24 h. Adherent cells were resolubilized with acetic acid (33%, v/v). The optical density of each well was measured at 570 nm using a Multiscan plate reader. The MBEC value represents the lowest compound dilution at which microorganisms fail to grow.

[2] = system: Candida tropicalis ATCC 750; experiment: Minimum biofilm eradication assay; assay type: cell-based; details: ATCC750, 48 h, read-out: MBEC
Description: as §1

Candida kefyr ATCC 2512 [3] = experiment: Minimum biofilm eradication assay; assay type: cell-based; details: Kluyveromyces marxianus, ATCC2512, 48 h, read-out: MBEC
Description: as §1

[4] = system: Candida krusei ATCC 14243; experiment: Minimum biofilm eradication assay; assay type: cell-based; details: Pichia kudriavzevii, ATCC14243, 48 h, read-out: MBEC
Description: as §1

[5] = system: Candida albicans ATCC 10231; experiment: Minimum biofilm eradication assay; assay type: cell-based; details: ATCC10231, 48 h, read-out: MBEC
Description: as §1

[6] = system: Candida albicans ATCC 90028; experiment: MIC determination (broth micro-dilution); assay type: cell-based; details: ATCC90028
Description: (§2) Before analysis, compounds 5a–f were dissolved in 96% ethanol in a concentration of 2 mg/ml as stock solutions. Inoculums were prepared with fresh cultures of microbial strains, cultured on tryptic-soy agar or Sabouraud 2% (m/v) dextrose agar for 18 h (48–72 h for fungi) at 30 °C with physiological saline containing approximately […]. Inoculum density (0.5 McFarland units) was adjusted with a bio Mériex (France) densitometer. Minimum inhibitory concentration (MIC) was determined by the twofold micro-dilution method in Mu¨ller–Hinton broth for bacterial strains and RPMI 1640 + 2% m/v dextrose for fungi according to the EUCAST recommendations in a sterile 96-well flat-bottom plastic tissue culture plate. MIC was determined using a linear regression curve after incubation of compounds and reading the optical density at 570 nm using an iEMS microplate reader. […] All tests were performed in triplicate and expressed as the mean.

[7] = system: Issatchenkia orientalis Kudrjanzev ATCC 6258; experiment: MIC determination (broth micro-dilution); assay type: cell-based; details: Pichia kudriavzevii, ATCC6258
Description: as §2

[8] = system: Candida tropicalis ATCC 750; experiment: MIC determination (broth micro-dilution); assay type: cell-based; details: ATCC750
Description: as §2

[9] = system: Aspergillus niger ATCC 16404; experiment: MIC determination (broth micro-dilution); assay type: cell-based; details: ATCC16404
Description: as §2

Candida kefyr ATCC 2512 [10] = experiment: MIC determination (broth micro-dilution); assay type: cell-based; details: Kluyveromyces marxianus, ATCC2512
Description: as §2

[11] = system: Candida krusei ATCC 14243; experiment: MIC determination (broth micro-dilution); assay type: cell-based; details: Pichia kudriavzevii, ATCC14243
Description: as §2

[12] = system: Candida albicans ATCC 10231; experiment: MIC determination (broth micro-dilution); assay type: cell-based; details: ATCC10231
Description: as §2

[13] = Interaction with 1,1-diphenyl-2-picrylhydrazyl (DPPH); details: 100 μΜ
Description: To a solution of DPPH in absolute ethanol, an appropriate volume of the tested compound solution (0.1 mM final concentration) dissolved in DMSO was added. Absorbance was recorded at 517 nm after 20 and 60 min at room temperature (Lambda 20 double beam spectrophotometer, Perkin-Elmer, UK). Experiments were repeated at least in triplicate and the standard deviation of absorbance was less than 10% of the mean[10]. NDGA was used under the same experimental conditions as a reference compound.

[14] = system: Pseudomonas aeruginosa ATCC 27853; experiment: MIC determination (broth micro-dilution); assay type: cell-based; details: ATCC27853
Description: as §2

[15] = system: Kocuria rhizophila ATCC 9341; experiment: MIC determination (broth micro-dilution); assay type: cell-based; details: ATCC9341
Description: as §2

[16] = system: Burkholderia caepacia ATCC 25416; experiment: MIC determination (broth micro-dilution); assay type: cell-based; details: ATCC25416
Description: as §2

[17] = system: Bacillus subtilis ATCC 6633; experiment: MIC determination (broth micro-dilution); assay type: cell-based; details: ATCC6633
Description: as §2

[18] = system: Enterococcus faecalis ATCC 29212; experiment: MIC determination (broth micro-dilution); assay type: cell-based; details: ATCC29212
Description: as §2

[19] = system: Candida parapsylosis ATCC 22019; experiment: MIC determination (broth micro-dilution); assay type: cell-based; details: ATCC22019
Description: as §2

[20] = system: Staphylococcus aureus ATCC 25923; experiment: MIC determination (broth micro-dilution); assay type: cell-based; details: ATCC25923
Description: as §2

[21] = system: Pseudomonas aeruginosa ATCC 9027; experiment: MIC determination (broth micro-dilution); assay type: cell-based; details: ATCC9027
Description: as §2

[22] = system: Enterococcus hyrae ATCC 8043; experiment: MIC determination (broth micro-dilution); assay type: cell-based; details: ATCC8043
Description: as §2

[23] = system: Bacillus cereus ATCC 11778; experiment: MIC determination (broth micro-dilution); assay type: cell-based; details: ATCC11778
Description: as §2

[24] = system: Escherichia coli ATCC 8739; experiment: MIC determination (broth micro-dilution); assay type: cell-based; details: ATCC8739
Description: as §2

[25] = system: Staphylococcus aureus ATCC 25213; experiment: MIC determination (broth micro-dilution); assay type: cell-based; details: ATCC25213
Description: as §2

[26] = system: Staphylococcus aureus ATCC 6538; experiment: MIC determination (broth micro-dilution); assay type: cell-based; details: ATCC6538
Description: as §2

[27] = system: Escherichia coli ATCC 10536; experiment: MIC determination (broth micro-dilution); assay type: cell-based; details: ATCC10536
Description: as §2

[28] = Inhibition of linoleic acid peroxidation (LP), AAPH-initiated; parameters: tested at 100 µM; details: 100 μΜ, 37 °C
Description: To initiate lipid peroxidation, the free radical AAPH was used[10]. The final solution in the UV cuvette consisted of 10 µl sodium linoleate solution (c = 16 mM) and 0.93 ml phosphate buffer pH 7.4 (c = 50 mM). Afterwards, 10 µl of the tested compound solution in DMSO (final concentration 0.1 mM) and 50 µl of AAPH solution (c = 40 mM) were added. The experiment was performed at 37 °C under air. Oxidation of linoleic acid sodium salt was monitored at 234 nm. The assay was repeated at least in triplicate and the standard deviation of absorbance was less than 10% of the mean. Trolox was used under the same experimental conditions as a reference compound.

E. coli (both strains) = experiment: Minimum biofilm eradication assay, E. coli both strains; assay type: cell-based, Escherichia coli
Description: as §1, with “The MBEC value represents the lowest compound dilution at which microorganisms fail to grow.” left out

[29] = system: Pseudomonas aeruginosa ATCC 27853; experiment: Minimum biofilm eradication assay; assay type: cell-based
Description: as §1

[30] = system: Enterococcus faecalis ATCC 29212; experiment: Minimum biofilm eradication assay; assay type: cell-based
Description: as §1

[31] = system: Candida parapsylosis ATCC 22019; experiment: Minimum biofilm eradication assay; assay type: cell-based
Description: as §1

[32] = system: Pseudomonas aeruginosa ATCC 9027; experiment: Minimum biofilm eradication assay; assay type: cell-based
Description: as §1

[33] = system: Escherichia coli ATCC 8739; experiment: Minimum biofilm eradication assay; assay type: cell-based
Description: as §1

[34] = system: Staphylococcus aureus ATCC 25213; experiment: Minimum biofilm eradication assay; assay type: cell-based
Description: as §1

[35] = system: Staphylococcus aureus ATCC 6538; experiment: Minimum biofilm eradication assay; assay type: cell-based
Description: as §1

[36] = system: Escherichia coli ATCC 10536; experiment: Minimum biofilm eradication assay; assay type: cell-based
Description: as §1

In the case of C[C@@H]1[C@H](O)[C@@H](C)/C=C/C=C/C=C/C=C/C=C/C=C/C=C/[C@H](O[C@@H]2O[C@H](C)[C@@H](O)[C@H](N)[C@@H]2O)C[C@@H]2O[C@](O)(C[C@@H](O)C[C@@H](O)[C@H](O)CC[C@@H](O)C[C@@H](O)CC(=O)O[C@H]1C)C[C@H](O)[C@H]2C(=O)O [Amph, amphotericin B, reference compound], the minimal effective concentration [1] is reported as 25 µg/mL, the minimal effective concentration [2] is reported as 50 µg/mL and the minimal effective concentration (Candida kefyr ATCC 2512 [3]) is reported as 25 µg/mL. For the same compound, the minimal effective concentration [4] was 50 µg/mL, the minimal effective concentration [5] was 25 µg/mL and the MIC [6] was 0.5 µg/mL (≈ 0.541 µM). It also gave an MIC [7] of 0.5 µg/mL (≈ 0.541 µM), an MIC [8] of 0.5 µg/mL (≈ 0.541 µM) and an MIC [9] of 0.5 µg/mL (≈ 0.541 µM). For the same compound, the MIC (Candida kefyr ATCC 2512 [10]) was 0.5 µg/mL (≈ 0.541 µM), the MIC [11] was 0.5 µg/mL (≈ 0.541 µM) and the MIC [12] was 0.5 µg/mL (≈ 0.541 µM).

With CC(Cc1ccc(O)c(O)c1)C(C)Cc1ccc(O)c(O)c1 (centres unmarked) [NDGA, nordihydroguaiaretic acid, reference compound] the “DPPH-reducing ability 20 min” value ([13]; 20 min) was 83.0 ± 1.0% and the “DPPH-reducing ability 60 min” value ([13]; 60 min) was 91.0 ± 1.7%.

For CN(C)[C@@H]1C(O)=C(C(N)=O)C(=O)[C@@]2(O)C(O)=C3C(=O)c4c(O)cccc4[C@@](C)(O)[C@H]3C[C@@H]12 [TC, tetracycline, reference compound], the MIC [14] was 3 µg/mL (≈ 6.75 µM), the MIC [15] was 0.63 µg/mL (≈ 1.42 µM) and the MIC [16] was 3 µg/mL (≈ 6.75 µM). The MIC [17] was 0.31 µg/mL (≈ 0.698 µM), the MIC [18] was 0.31 µg/mL (≈ 0.698 µM) and the MIC [19] was 6.13 µg/mL (≈ 13.8 µM). It also gave an MIC [20] of 0.31 µg/mL (≈ 0.698 µM), an MIC [21] of 3 µg/mL (≈ 6.75 µM) and an MIC [22] of 0.63 µg/mL (≈ 1.42 µM). It also gave an MIC [23] of 0.31 µg/mL (≈ 0.698 µM), an MIC [24] of 2.5 µg/mL (≈ 5.63 µM) and an MIC [25] of 0.16 µg/mL (≈ 0.36 µM). It also gave an MIC [26] of 0.31 µg/mL (≈ 0.698 µM) and an MIC [27] of 2.5 µg/mL (≈ 5.63 µM).

In the case of Cc1c(C)c2c(c(C)c1O)CCC(C)(C(=O)O)O2 (centres unmarked) [Trolox, 6-hydroxy-2,5,7,8-tetramethylchroman-2-carboxylic acid, reference compound], the “LP inhibition (%) ± SD” value [28] is reported as 96 ± 2.0%.

gentamycin [reference compound] gave an MBEC (E. coli (both strains)) of 25 µg/mL, an MBEC [29] of 50 µg/mL and an MBEC [30] of 50 µg/mL. The MBEC [31] was 50 µg/mL, the MBEC [32] was 50 µg/mL and the MBEC [33] was 25 µg/mL. For the same compound, the MBEC [34] was 12.5 µg/mL, the MBEC [35] was 12.5 µg/mL and the MBEC [36] was 25 µg/mL.
